The source of these data is PMC10793205, “Differential transmetallation of complexes of the anti-cancer thiosemicarbazone, Dp4e4mT: effects on anti-proliferative efficacy, redox activity, oxy-myoglobin and oxy-hemoglobin oxidation” (Chemical Science, 2023).

Entries after “also recorded” stand apart in the source; their conditions may differ.

A short description of series [1]: Transmetallation kinetics with FeCl3 in DMSO (time-resolved UV-vis). It is filed as physicochemical. Conditions: for Observed pseudo first order rate constant kobs, FeCl3: 10-fold excess of FeCl3 in DMSO, 25 °C; for t½, transmetallation with FeCl3: FeCl3 in DMSO. The procedure:
The capacity of the Fe(III), Ni(II), Co(III), Zn(II), Ga(III), and Pd(II) complexes of Dp4e4mT to transmetallate with Cu(II) and/or Fe(III) to result in redox active Cu(II) and Fe(III) complexes could be critical in understanding their anti-proliferative efficacy, redox activity, and ability to oxidize oxy-Mb and oxy-Hb. To examine this, LC-MS spectrometry was performed in DMSO after the addition of 1 equivalent of FeCl3 or Cu(OAc)2 and the solutions then incubated for 24 h/20 °C due to slow reaction kinetics. This solution was then diluted 1 : 1 in methanol and LC-MS performed using a mobile phase consisting of 90% MeOH, 9.9% water, and 0.1% formic acid (Fig. S2–S9 ^†). These investigations were supported by EPR studies in DMSO after the addition of 1 equivalent of FeCl3 or Cu(OAc)2 incubated under the same conditions (Fig. 3A–G). As a third method to investigate transmetallation, kinetic studies using time-resolved UV-vis spectroscopy were performed under pseudo-first order conditions with a 10-fold excess of FeCl3 or Cu(OAc)2 in DMSO (Fig. S11–S16 ^†). The pseudo-first order rate constants were calculated from the time-dependent UV-vis spectroscopy data (at all wavelengths) with Reactlab Kinetics[49] and collected in Table S2. ^† […]
Time-dependent UV-Vis absorption spectra were measured on an Agilent 8453 diode array UV−Vis spectrophotometer, equipped with a thermostatted (± 0.1 °C) multicell transport cooled by a Huber Ministat 230 recirculating cooling bath. Spectral analysis was carried out with Reactlab Kinetics. 10 […]
Table S2. Observed pseudo first order rate constants (k obs, s−1) for reactions of each Dp4e4mT complex with a 10-fold excess of Cu(OAc) 2 or FeCl 3 in DMSO or water (pH 7.4 or 5.0) at 25 °C. […]
[Co(Dp4e4mT)2]+ No reaction No reaction No reaction No reaction […]
a Reaction could not be deciphered by UV-Vis spectroscopy; bchlorido ligand hydrolysis

For another series, the target named is T1, oxy-Mb (Homo sapiens, UniProt P02144).
T1 sequence (P02144 1-154): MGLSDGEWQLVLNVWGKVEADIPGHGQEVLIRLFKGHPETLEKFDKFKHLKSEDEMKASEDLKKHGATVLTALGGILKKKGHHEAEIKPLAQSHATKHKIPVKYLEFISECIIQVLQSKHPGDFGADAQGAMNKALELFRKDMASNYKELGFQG
Kind of series: Oxidation of purified oxy-Mb to met-Mb (UV-vis). The format is biochemical. Particulars: 10 μM agent, oxy-Mb 40 μM; for oxy-Mb oxidation (in words): 1–3 h/20 °C; for oxy-Mb oxidation (met-Mb generation): 3 h incubation, 20 °C. From the text: As such, it was important to examine the effect of the Dp4e4mT complexes on oxy-Hb and oxy-Mb oxidation (Fig. 6 and 7). Comparisons were made to three controls, namely DFO, Dp44mT, and DpC, as well as their Fe(III) complexes. […] In contrast, the Fe(III) complexes of Dp44mT and DpC were positive controls, as they induce oxidation of oxy-Mb.[28,39,42]
Fig. 6 (A and B) Investigation of the effects of Dp4e4mT and its Fe(III), Co(III), Ni(II), Cu(II), Zn(II), Ga(III), and Pd(II) complexes versus the positive controls DFO, Dp44mT, DpC and their Fe(III) complexes (10 μM) on met-Mb generation (% zero time) after an incubation of 1–3 h/20 °C with purified oxy-Mb (40 μM). Results are mean ± SD (3 experiments).
Spectroscopic Examination of Met-Mb and Met-Hb Formation from Oxy-Mb and Oxy- […]
Oxy-Mb and oxy-Hb solutions were prepared following established protocols.8, 17 In brief, solutions of reduced Mb and Hb in PBS (pH 7.2) were prepared by adding 1.2 mL of Na2S2O4 (12 mM) to 38 mL of met-Mb and met-Hb solution (40 μM). 17 Subsequently, oxy-Mb and oxy-Hb were generated by gently passing 150 mL of oxygen (from an air-filled syringe) through the solution containing reduced Mb and Hb, effectively eliminating any residual Na2S2O4. Following this, the oxy-Mb and oxy-Hb solutions were passed through a PD-10 column prepacked with 8.3 mL of Sephadex G-25 and equilibrated with PBS (pH 7.2). 17 In experiments examining the activity of the agents, all complexes were dissolved in 1,2-propanediol, then diluted to 10 µM in PBS (pH 7.2). The experiments were conducted over incubations of 0 to 3 h with the agents. UV-Vis spectra covering the range of 300 to 700 nm were recorded at a temperature of 20°C using a Shimadzu UV−Vis spectrophotometer (UV-1800; Shimadzu, Kyoto, Japan). Concentrations of met-Mb and met-Hb, as well as reduced-Mb and reduced-Hb, were determined at 409 nm and 435 nm, respectively. Concentrations of oxy-Mb and oxy-Hb were determined at 544 nm and 582 nm, respectively. 17

On to `CCN(C)C([S-])=NN=C(c1ccccn1)c1ccccn1.CCN(C)C([S-])=NN=C(c1ccccn1)c1ccccn1.[Co+3]` [[Co(Dp4e4mT)2]^+], for which the “Observed pseudo first order rate constant kobs, FeCl3” value in series [1] was “No reaction”. Besides, the “oxy-Mb oxidation (in words)” value was “minimal impact” at oxy-Mb and “no appreciable oxidation of oxy-Mb” on oxy-Mb (listed as Dp4e4mT Co(III) complex).
For the compound `CN(C)C(=S)NN=C(c1ccccn1)c1ccccn1` [Dp44mT, di-2-pyridylketone 4,4-dimethyl-3-thiosemicarbazone, reference compound], the “oxy-Mb oxidation (met-Mb generation)” value at oxy-Mb was 129 % of the control.
In the case of `CCN(C)C([S-])=NN=C(c1ccccn1)c1ccccn1.CCN(C)C([S-])=NN=C(c1ccccn1)c1ccccn1.[Ga+3]` [[Ga(Dp4e4mT)2]^+], the “t½, transmetallation with FeCl3” value in series [1] is 3 to 4 h. In addition, the “oxy-Mb oxidation (in words)” value on oxy-Mb was “significantly increased oxy-Mb and oxy-Hb oxidation”; at oxy-Mb (listed as Dp4e4mT Ga(III) complex) it was “induced marked oxy-Mb oxidation”.
Turning to `CCN(C)C([S-])=NN=C(c1ccccn1)c1ccccn1.CCN(C)C([S-])=NN=C(c1ccccn1)c1ccccn1.[Zn+2]` [[Zn(Dp4e4mT)2]], the “Observed pseudo first order rate constant kobs, FeCl3” value in series [1] was determined as 0.00891 s⁻¹. For the same compound, in series [1], the “t½, transmetallation with FeCl3” value was ~0.017 h. The “oxy-Mb oxidation (in words)” value at oxy-Mb was “significantly increased oxy-Mb and oxy-Hb oxidation”; on oxy-Mb (listed as Dp4e4mT Zn(II) complex) it was “induced marked oxy-Mb oxidation”.
`CCN(C)C([S-])=NN=C(c1ccccn1)c1ccccn1.[Cl-].[Pd+2]` [[Pd(Dp4e4mT)Cl]]: the “Observed pseudo first order rate constant kobs, FeCl3” value in series [1] was “No reaction”. For the same compound, the figures for the “oxy-Mb oxidation (in words)” value at oxy-Mb and on oxy-Mb (listed as Dp4e4mT Pd(II) complex) were “minimal impact” and “no appreciable oxidation of oxy-Mb”, respectively.
On to `CCN(C)C([S-])=NN=C(c1ccccn1)c1ccccn1.[Cl-].[Cu+2]` [[Cu(Dp4e4mT)Cl]], for which, in series [1], the “Observed pseudo first order rate constant kobs, FeCl3” value is given as “No reaction”. Further, the “oxy-Mb oxidation (in words)” value on oxy-Mb is recorded as “did not significantly lead to oxidation of oxy-Mb”.
On to `CCN(C)C([S-])=NN=C(c1ccccn1)c1ccccn1.CCN(C)C([S-])=NN=C(c1ccccn1)c1ccccn1.[Fe+3]` [[Fe(Dp4e4mT)2]^+], for which the “oxy-Mb oxidation (met-Mb generation)” value on oxy-Mb was 213 % of the control.
With `CCN(C)C([S-])=NN=C(c1ccccn1)c1ccccn1.CCN(C)C([S-])=NN=C(c1ccccn1)c1ccccn1.[Ni+2]` [[Ni(Dp4e4mT)2]], the “Observed pseudo first order rate constant kobs, FeCl3” value in series [1] is recorded as “No reaction; also recorded: unreactive”. In addition, in series [1] (DMSO, after 3 days), the “extent of reaction with Fe(III)” value is listed as ~20%. Moreover, at oxy-Mb, the “oxy-Mb oxidation (in words)” value was “low activity; also recorded: minimal impact”.
As for `CCN(C)C(=S)NN=C(c1ccccn1)c1ccccn1` [Dp4e4mT, di-2-pyridylketone-4-ethyl-4-methyl-3-thiosemicarbazone], the “oxy-Mb oxidation (met-Mb generation)” value on oxy-Mb is 140 % of the control.
